The supplement of paper PMC10307832

Legend:
Assay in all cases: relative viability (nuclei count vs DMSO), 5 days (fraction); higher = more cells survive
SW 900 = system: SW 900
Outline: (§1)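 A single step with final 0.05% Triton X-100, 1% formaldehyde and 1 ug/ml Hoechst fixed the cells and stained nuclei 5 days after treatment. Lung cancer cell lines in 1536-well plates had been treated by pin tool the day after seeding with one drug alone or a fixed anchor-drug dose plus five library-drug doses (not always all listed) in √10 steps, and nuclei were counted on 4× images. Relative viability is the ratio of nuclei in treated wells to nuclei in vehicle wells, taken as the median of duplicate plates.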

EKVX = system: EKVX
Outline: as §1

COR-L23 = system: COR-L23
Outline: as §1

SW 1573 = system: SW 1573
Outline: as §1

NCI-H1793 = system: NCI-H1793
Outline: as §1

HCC-44 = system: HCC-44
Outline: as §1

NCI-H460 = system: NCI-H460
Outline: as §1

LK-2 = system: LK-2
Outline: as §1

NCI-H2228 = system: NCI-H2228
Outline: as §1

NCI-H520 = system: NCI-H520
Outline: as §1

EMC-BAC-2 = system: EMC-BAC-2
Outline: as §1

LXF-289 = system: LXF-289
Outline: as §1

NCI-H1650 = system: NCI-H1650
Outline: as §1

NCI-H1651 = system: NCI-H1651
Outline: as §1

NCI-H1915 = system: NCI-H1915
Outline: as §1

NCI-H2347 = system: NCI-H2347
Outline: as §1

NCI-H661 = system: NCI-H661
Outline: as §1

A-427 = system: A-427
Outline: as §1

NCI-H2087 = system: NCI-H2087
Outline: as §1

BEN = system: BEN
Outline: as §1

EPLC-272H = system: EPLC-272H
Outline: as §1

NCI-H358 = system: NCI-H358
Outline: as §1

COCC1(CO)C(=O)C2CCN1CC2 (stereo not given) [PRIMA-1MET] + O=C(CCCCCCC(=O)Nc1ccccc1)NO [Vorinostat] (partner 1 µM)
relative viability (SW 900; first compound 0.2 µM): 0.58
relative viability (SW 900; first compound 0.6325 µM): 0.427
relative viability (SW 900; first compound 6.325 µM): 0.504
relative viability (SW 900; first compound 20 µM): 0.129
relative viability (EKVX; first compound 0.2 µM): 0.995
relative viability (EKVX; first compound 0.6325 µM): 0.548
relative viability (EKVX; first compound 2 µM): 0.672
relative viability (EKVX; first compound 6.325 µM): 0.849
relative viability (EKVX; first compound 20 µM): 0.64
relative viability (COR-L23; first compound 0.2 µM): 0.487
relative viability (COR-L23; first compound 0.6325 µM): 0.432
relative viability (COR-L23; first compound 2 µM): 0.454
relative viability (COR-L23; first compound 6.325 µM): 0.344
relative viability (COR-L23; first compound 20 µM): 0.0281
relative viability (SW 1573; first compound 0.2 µM): 0.83
relative viability (SW 1573; first compound 0.6325 µM): 0.553
relative viability (SW 1573; first compound 2 µM): 0.429
relative viability (SW 1573; first compound 6.325 µM): 0.0463
relative viability (SW 1573; first compound 20 µM): 0.0325
relative viability (NCI-H1793; first compound 0.2 µM): 0.932
relative viability (NCI-H1793; first compound 0.6325 µM): 0.488
relative viability (NCI-H1793; first compound 6.325 µM): 0.797
relative viability (NCI-H1793; first compound 20 µM): 0.762
relative viability (HCC-44; first compound 0.2 µM): 1.08
relative viability (HCC-44; first compound 0.6325 µM): 1.03
relative viability (HCC-44; first compound 2 µM): 1.18
relative viability (HCC-44; first compound 6.325 µM): 1.18
relative viability (HCC-44; first compound 20 µM): 1.06
relative viability (NCI-H460; first compound 0.2 µM): 0.949
relative viability (NCI-H460; first compound 0.6325 µM): 0.588
relative viability (NCI-H460; first compound 2 µM): 0.686
relative viability (NCI-H460; first compound 6.325 µM): 0.613
relative viability (NCI-H460; first compound 20 µM): 0.0194
relative viability (LK-2; first compound 0.2 µM): 0.181
relative viability (LK-2; first compound 0.6325 µM): 0.255
relative viability (LK-2; first compound 2 µM): 0.166
relative viability (LK-2; first compound 6.325 µM): 0.325
relative viability (LK-2; first compound 20 µM): 0.0975
relative viability (NCI-H2228; first compound 0.2 µM): 0.792
relative viability (NCI-H2228; first compound 0.6325 µM): 0.74
relative viability (NCI-H2228; first compound 2 µM): 0.6
relative viability (NCI-H2228; first compound 6.325 µM): 0.606
relative viability (NCI-H2228; first compound 20 µM): 0.0625
relative viability (NCI-H520; first compound 0.2 µM): 0.807
relative viability (NCI-H520; first compound 2 µM): 0.621
relative viability (NCI-H520; first compound 6.325 µM): 0.652
relative viability (NCI-H520; first compound 20 µM): 0.149
relative viability (EMC-BAC-2; first compound 0.2 µM): 0.582
relative viability (EMC-BAC-2; first compound 0.6325 µM): 0.36
relative viability (EMC-BAC-2; first compound 2 µM): 0.335
relative viability (EMC-BAC-2; first compound 6.325 µM): 0.527
relative viability (EMC-BAC-2; first compound 20 µM): 0.271
relative viability (LXF-289; first compound 0.2 µM): 0.864
relative viability (LXF-289; first compound 0.6325 µM): 0.628
relative viability (LXF-289; first compound 2 µM): 0.79
relative viability (LXF-289; first compound 6.325 µM): 0.796
relative viability (LXF-289; first compound 20 µM): 0.745
relative viability (NCI-H1650; first compound 0.2 µM): 0.619
relative viability (NCI-H1650; first compound 0.6325 µM): 0.403
relative viability (NCI-H1650; first compound 2 µM): 0.55
relative viability (NCI-H1650; first compound 6.325 µM): 0.703
relative viability (NCI-H1650; first compound 20 µM): 0.406
relative viability (NCI-H1651; first compound 0.2 µM): 0.563
relative viability (NCI-H1651; first compound 0.6325 µM): 0.188
relative viability (NCI-H1651; first compound 2 µM): 0.458
relative viability (NCI-H1651; first compound 6.325 µM): 0.617
relative viability (NCI-H1651; first compound 20 µM): 0.564
relative viability (NCI-H1915; first compound 0.2 µM): 0.605
relative viability (NCI-H1915; first compound 0.6325 µM): 0.378
relative viability (NCI-H1915; first compound 2 µM): 0.446
relative viability (NCI-H1915; first compound 6.325 µM): 0.625
relative viability (NCI-H1915; first compound 20 µM): 0.482
relative viability (NCI-H2347; first compound 0.2 µM): 0.574
relative viability (NCI-H2347; first compound 0.6325 µM): 0.656
relative viability (NCI-H2347; first compound 2 µM): 0.348
relative viability (NCI-H2347; first compound 6.325 µM): 0.551
relative viability (NCI-H2347; first compound 20 µM): 0.327
relative viability (NCI-H661; first compound 0.2 µM): 0.853
relative viability (NCI-H661; first compound 0.6325 µM): 0.771
relative viability (NCI-H661; first compound 2 µM): 0.774
relative viability (NCI-H661; first compound 6.325 µM): 0.816
relative viability (NCI-H661; first compound 20 µM): 0.759
relative viability (A-427; first compound 0.2 µM): 1.1
relative viability (A-427; first compound 0.6325 µM): 0.869
relative viability (A-427; first compound 2 µM): 0.856
relative viability (A-427; first compound 6.325 µM): 0.949
relative viability (A-427; first compound 20 µM): 0.865
relative viability (NCI-H2087; first compound 0.6325 µM): 0.479
relative viability (NCI-H2087; first compound 2 µM): 0.604
relative viability (NCI-H2087; first compound 6.325 µM): 0.477
relative viability (NCI-H2087; first compound 20 µM): 0.336
relative viability (BEN; first compound 0.2 µM): 0.664
relative viability (BEN; first compound 0.6325 µM): 0.389
relative viability (BEN; first compound 6.325 µM): 0.571
relative viability (BEN; first compound 20 µM): 0.613
relative viability (EPLC-272H; first compound 0.2 µM): 0.536
relative viability (EPLC-272H; first compound 0.6325 µM): 0.581
relative viability (EPLC-272H; first compound 2 µM): 0.417
relative viability (EPLC-272H; first compound 6.325 µM): 0.534
relative viability (EPLC-272H; first compound 20 µM): 0.0678
relative viability (NCI-H358; first compound 0.2 µM): 0.82
relative viability (NCI-H358; first compound 0.6325 µM): 0.695
relative viability (NCI-H358; first compound 2 µM): 0.669
relative viability (NCI-H358; first compound 6.325 µM): 0.786
relative viability (NCI-H358; first compound 20 µM): 0.163
